Assay [1] concerns HTM cells. The following applies: for reduction in HA secretion: T3-supplemented vs T3-stripped media (No Tx).
The test system of assay [2] is HTM cells. The following applies: 10^−7 M, non-confluent cultures, serum-free, day 10, vs controls lacking T3.
The test system of another assay is CD44E. The note with it: HTM cells exposed to supplemental T3 for 18 hours.
The test system of another assay is CD44-v 3. The following applies: HTM cells exposed to supplemental T3 for 18 hours.
The subject of assay [3] is Normal pigmented Dutch rabbits.
The subject of assay [4] is HTM cells. The following applies: 10^−7M.
Description: The assay system visualizes the cell's extracellular matrix by taking advantage of its ability to exclude added formalized red blood cells from an area around the cell. Proteoglycan monomer and HA are added to the cells in excess as pericellular matrix assembly is observed by microscopy.
HTM cells were plated on 35-mm dishes at a density of 1×10^4 cells per plate. […] For exogenous matrix assembly, cells were then incubated for 3 hours at 37° C. with 3.0 mg/ml of aggregating proteoglycan monomer (purified from rat chondrosarcoma tumor (Ref. 1)) and 15 μg/ml of hyaluronan (grade 1, Sigma Chemical Co., St. Louis, Mo.). The medium was removed and 0.75 ml of a suspension of formaldehyde fixed red blood cells (1×10^8 cells/ml) in phosphate buffered saline with 0.1% bovine serum albumin was added to each well of cells. After 10 minutes the cells and extracellular matrices (ECMs) were observed visualized by phase contrast microscopy (REF 2, 3). The cell matrices were categorized into one of three groups. Cells having no coats have no visible ECM. Cells having small coats have a visible ECM that extends less than the width of the cell's nucleus out from the cell's plasma membrane. Cells having large coats have a visible ECM that extends greater than the width of the cell's nucleus out from the cell's plasma membrane.

Like-named read-outs stand apart in the source and are kept apart here.

Description for CD44-v 3: (§1) To investigate whether CD44 receptors are expressed by HTM cells, four CD44 isoforms can be measured using RT-PCR analysis with probes for CD44s, CD44E, CD44-v1 and CD44-v3. […] RNA was made using RNA TrackTM (Biotecx, Friendswood, Tex.). The RNA was used as a template for the first strand synthesis of cDNA in a reaction mixture containing 1000 U Moloney Murine Leukemia Virus Reverse Transcriptase (BRL, Gaithersburg, Md.), 50 mM random hexamer primer, 50 mM Tris-HCl (pH 8.3), 75 mM KCl, 10 mM dithiothreitol, 3 mM MgC12, 0.5 mM each of dGTP, dATP, dTTP and dCTP in 60 ul total volume. The cDNA reactions were carried out at 37° C. for 90 min, and then diluted 1:3 or 1:7 in water, pretreated with DEPC. Oligonucleotide primers were diluted to 40 μM in water.
(§2) For RT-PCR, a modified hot start method was used. A quantity of 3-5 μl of cDNA was added to 30 μl of a master mix containing 0.8 μl of each primer, 17 mM Tris-HCI (pH 8.3) and 80 mM KCI. Water was added to the cDNA reactions to a final volume of 40 μl. All reactions were overlaid with light mineral oil and heated to 99° C. After 10 min the reactions were cooled to 94° C. and a 10 μl volume containing 7 mM MgCI2, 1 mM each of dATP, dTTP, dGTP and dCTP, and 1.2 U Taq Polymerase (Perkin-Elmer Cetus, Branchburg, N.J.) was added directly through the oil overlay. […]
Description for CD44E: as §1, §2

As for 3,3′-5-triiodo-L-thyronine [T3], in the assay on HTM cells [1] (10^−7 M, confluent cells, day 5, vs control cultures), the “fold reduction in secreted HA concentration” value was 2.95 fold. The “reduction in HA secretion” value in the assay on HTM cells [1] (day 2, FIG. 1) amounted to 57%; with HTM cells [1] (day 4, FIG. 1), 66%. The “T3 concentration of maximal inhibition of HA production” value in the assay with HTM cells [1] (cultured HTM cells, FIG. 2) is on record as 10^−7-10^−6 M. In the assay on HTM cells [1] (non-confluent (less than 75% confluent) cells), the “reduction of HA concentration in the media, non-confluent vs confluent treated cells” value is “even greater reduction”. In addition, the EC50 in the assay with HTM cells [1] (read-out: half maximal concentration for reduction of HA concentration, confluent cells, dose response curve FIG. 2) is roughly 5 nM. Further, the “fold increase in secreted hyaluronidase activity” value in the assay with HTM cells [2] was 1.9 fold. In the assay with CD44E, the “expression of CD44E isoform” value was “dramatic reduction”. Further, the “expression of CD44-v 3 isoform” value with CD44-v 3 is recorded as “dramatic reduction”. Besides, in assay [3] (five rabbits), the “decrease in IOP within three weeks of administration” value is “at least some detectable decrease in IOP”. The “largest decrease in IOP after three weeks of T3 administration” value in assay [3] (one rabbit) stood at 25%. The “fold greater number of cells with no coats than cells grown in the absence of T3” value in the assay with HTM cells [4] (2 days) is on record as roughly 2 fold; in the assay with HTM cells [4] (4 days) it was “more than 4 fold”.
